Test results taken from PubChem BioAssay AID248 (DTP/NCI, 2004).
Several values for one entry are separate records, joined by “and”; a condition that tells them apart may be missing. Identical values can stand only once. Toxic doses and inconclusive results are not listed.

Tested on: L1210 leukemia ip in BDF1 mice, survival T/C
Test: NCI In Vivo Anticancer Drug Screen. Data for tumor model L1210 Leukemia (intraperitoneal) in B6D2F1 (BDF1) mice
Details: endpoint: mean survival time, higher = longer survival
Summary of the method: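 Survival endpoint. Drug-treated group vs vehicle group, expressed as T divided by C. Tumor passaged by transplantation.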

[1] = dose: 100.0 mg/kg/injection, schedule: Q01DX001 (ip), vehicle: carboxymethylcellulose (CMC)
[2] = dose: 100.0 mg/kg/injection, schedule: Q01DX009 (ip), vehicle: carboxymethylcellulose (CMC)
[3] = dose: 200.0 mg/kg/injection, schedule: Q01DX001 (ip), vehicle: carboxymethylcellulose (CMC)
[4] = dose: 200.0 mg/kg/injection, schedule: Q01DX009 (ip), vehicle: carboxymethylcellulose (CMC)
[5] = dose: 400.0 mg/kg/injection, schedule: Q01DX001 (ip), vehicle: carboxymethylcellulose (CMC)
[6] = dose: 400.0 mg/kg/injection, schedule: Q01DX009 (ip), vehicle: carboxymethylcellulose (CMC)
[7] = dose: 100.0 mg/kg/injection, schedule: Q01DX009 (ip), vehicle: saline with Tween-80
[8] = dose: 100.0 mg/kg/injection, schedule: Q04DX003 (ip), vehicle: saline with Tween-80
[9] = dose: 200.0 mg/kg/injection, schedule: Q01DX009 (ip), vehicle: saline with Tween-80
[10] = dose: 200.0 mg/kg/injection, schedule: Q04DX003 (ip), vehicle: saline with Tween-80
[11] = dose: 400.0 mg/kg/injection, schedule: Q01DX009 (ip), vehicle: saline with Tween-80
[12] = dose: 400.0 mg/kg/injection, schedule: Q04DX003 (ip), vehicle: saline with Tween-80

SMILES: NC(=O)c1ccccc1NC(=O)Nc1ccc(F)cc1
- T/C [1]: 104 % of control
- T/C [2]: 102 % of control and 105 % of control
- T/C (dose: 100.0 mg/kg/injection, schedule: Q04DX002 (ip), vehicle: carboxymethylcellulose (CMC)): 100 % of control and 101 % of control
- T/C (dose: 100.0 mg/kg/injection, schedule: Q04DX003 (ip), vehicle: carboxymethylcellulose (CMC)): 95 % of control
- T/C [3]: 101 % of control
- T/C [4]: 98 % of control and 105 % of control
- T/C (dose: 200.0 mg/kg/injection, schedule: Q04DX002 (ip), vehicle: carboxymethylcellulose (CMC)): 101 % of control and 107 % of control
- T/C (dose: 200.0 mg/kg/injection, schedule: Q04DX003 (ip), vehicle: carboxymethylcellulose (CMC)): 102 % of control
- T/C [5]: 93 % of control
- T/C [6]: 94 % of control and 102 % of control
- T/C (dose: 400.0 mg/kg/injection, schedule: Q04DX002 (ip), vehicle: carboxymethylcellulose (CMC)): 93 % of control and 96 % of control
- T/C (dose: 400.0 mg/kg/injection, schedule: Q04DX003 (ip), vehicle: carboxymethylcellulose (CMC)): 91 % of control

SMILES: NC(=O)Nc1cccc(C(F)(F)F)c1
- T/C (dose: 75.0 mg/kg/injection, schedule: Q01DX001 (ip), vehicle: carboxymethylcellulose (CMC)): 98 % of control
- T/C (dose: 150.0 mg/kg/injection, schedule: Q01DX001 (ip), vehicle: carboxymethylcellulose (CMC)): 102 % of control
- T/C (dose: 300.0 mg/kg/injection, schedule: Q01DX001 (ip), vehicle: carboxymethylcellulose (CMC)): 103 % of control

SMILES: CC#N.[CH-]=C(C)C.[Cl][Pt][Cl]
- T/C (dose: 6.25 mg/kg/injection, schedule: Q04DX003 (ip), vehicle: water): 95 % of control
- T/C (dose: 12.5 mg/kg/injection, schedule: Q04DX003 (ip), vehicle: water): 97 % of control
- T/C (dose: 25.0 mg/kg/injection, schedule: Q04DX003 (ip), vehicle: water): 100 % of control
- T/C (dose: 50.0 mg/kg/injection, schedule: Q04DX003 (ip), vehicle: water): 101 % of control

SMILES: c1ccc2cc(Sc3ncnc4nc[nH]c34)ccc2c1
- T/C [7]: 97 % of control
- T/C [8]: 105 % of control
- T/C [9]: 103 % of control
- T/C [10]: 98 % of control
- T/C [11]: 97 % of control
- T/C [12]: 98 % of control

SMILES: NC1=NCCS1
- T/C (dose: 25.0 mg/kg/injection, schedule: Q04DX002 (ip), vehicle: saline): 103 % of control
- T/C (dose: 50.0 mg/kg/injection, schedule: Q04DX002 (ip), vehicle: saline): 110 % of control
- T/C (dose: 100.0 mg/kg/injection, schedule: Q04DX002 (ip), vehicle: saline): 95 % of control and 103 % of control

SMILES: C[C@]12CCC(=O)C=C1CC[C@@H]1[C@@H]2[C@@H](O)C[C@@]2(C)[C@H]1CC[C@]2(O)C(=O)COC(=O)CCC(=O)O
- T/C (dose: 50.0 mg/kg/injection, schedule: Q01DX001 (sc), vehicle: steriod suspending solution): 107 % of control
- T/C (dose: 100.0 mg/kg/injection, schedule: Q01DX001 (sc), vehicle: steriod suspending solution): 104 % of control
- T/C (dose: 100.0 mg/kg/injection, schedule: Q01DX009 (ip), vehicle: steriod suspending solution): 108 % of control
- T/C (dose: 100.0 mg/kg/injection, schedule: Q04DX003 (sc), vehicle: steriod suspending solution): 100 % of control
- T/C (dose: 200.0 mg/kg/injection, schedule: Q01DX001 (sc), vehicle: steriod suspending solution): 105 % of control
- T/C (dose: 200.0 mg/kg/injection, schedule: Q01DX009 (ip), vehicle: steriod suspending solution): 101 % of control
- T/C (dose: 200.0 mg/kg/injection, schedule: Q04DX003 (sc), vehicle: steriod suspending solution): 96 % of control
- T/C (dose: 400.0 mg/kg/injection, schedule: Q01DX001 (sc), vehicle: steriod suspending solution): 94 % of control
- T/C (dose: 400.0 mg/kg/injection, schedule: Q01DX009 (ip), vehicle: steriod suspending solution): 103 % of control
- T/C (dose: 400.0 mg/kg/injection, schedule: Q04DX003 (sc), vehicle: steriod suspending solution): 102 % of control

SMILES: COC(=O)c1cccc2c1ccc1ccccc12
- T/C (dose: 37.5 mg/kg/injection, schedule: Q04DX003 (ip), vehicle: saline): 92 % of control
- T/C (dose: 50.0 mg/kg/injection, schedule: Q01DX009 (ip), vehicle: Klucel (hydroxypropylcellulose) (HPC)): 111 % of control
- T/C (dose: 75.0 mg/kg/injection, schedule: Q04DX003 (ip), vehicle: saline): 94 % of control
- T/C (dose: 100.0 mg/kg/injection, schedule: Q01DX009 (ip), vehicle: Klucel (hydroxypropylcellulose) (HPC)): 105 % of control
- T/C (dose: 150.0 mg/kg/injection, schedule: Q04DX003 (ip), vehicle: saline): 89 % of control
- T/C (dose: 200.0 mg/kg/injection, schedule: Q01DX009 (ip), vehicle: Klucel (hydroxypropylcellulose) (HPC)): 96 % of control

SMILES: Cc1ccc2c(c1)CC=CO2
- T/C (dose: 50.0 mg/kg/injection, schedule: Q01DX009 (ip), vehicle: carboxymethylcellulose (CMC)): 91 % of control
- T/C [1]: 96 % of control
- T/C [2]: 94 % of control and 97 % of control
- T/C [7]: 88 % of control
- T/C [8]: 101 % of control
- T/C [3]: 96 % of control
- T/C [4]: 94 % of control and 95 % of control
- T/C [10]: 97 % of control
- T/C [5]: 100 % of control
- T/C [6]: 96 % of control
- T/C [11]: 92 % of control
- T/C [12]: 98 % of control

SMILES: COc1cccc(NC(=O)N(CCCl)N=O)c1
- T/C (dose: 4.5 mg/kg/injection, schedule: Q01DX001 (ip), vehicle: carboxymethylcellulose (CMC)): 122 % of control
- T/C (dose: 18.0 mg/kg/injection, schedule: Q01DX001 (ip), vehicle: carboxymethylcellulose (CMC)): 159 % of control
- T/C (dose: 26.0 mg/kg/injection, schedule: Q01DX001 (ip), vehicle: carboxymethylcellulose (CMC)): 151 % of control
- T/C (dose: 40.0 mg/kg/injection, schedule: Q01DX001 (ip), vehicle: carboxymethylcellulose (CMC)): 188 % of control
- T/C (dose: 60.0 mg/kg/injection, schedule: Q01DX001 (ip), vehicle: carboxymethylcellulose (CMC)): 87 % of control
- T/C (dose: 93.0 mg/kg/injection, schedule: Q01DX001 (ip), vehicle: carboxymethylcellulose (CMC)): 87 % of control

SMILES: CC(=O)N1CCc2cc(N)ccc21
- T/C [9]: 103 % of control

SMILES: c1ccc(CCN2CCCC2)nc1
- T/C (dose: 12.5 mg/kg/injection, schedule: Q04DX002 (ip), vehicle: saline with Tween-80): 103 % of control
- T/C (dose: 25.0 mg/kg/injection, schedule: Q04DX002 (ip), vehicle: saline with Tween-80): 98 % of control

SMILES: CCN(CC)CCCC(C)Nc1cc(N)nc2nc(-c3ccc(Br)cc3)cnc12 (centres undefined)
- T/C (dose: 75.0 mg/kg/injection, schedule: Q01DX001 (ip), vehicle: saline): 106 % of control
- T/C (dose: 150.0 mg/kg/injection, schedule: Q01DX001 (ip), vehicle: saline): 101 % of control

SMILES: CC(=O)NNC(=O)c1ccncc1
- T/C (dose: 100.0 mg/kg/injection, schedule: Q01DX001 (ip), vehicle: water): 93 % of control
- T/C (dose: 100.0 mg/kg/injection, schedule: Q01DX009 (ip), vehicle: water): 101 % of control
- T/C (dose: 200.0 mg/kg/injection, schedule: Q01DX001 (ip), vehicle: water): 98 % of control
- T/C (dose: 200.0 mg/kg/injection, schedule: Q01DX009 (ip), vehicle: water): 106 % of control and 110 % of control
- T/C (dose: 400.0 mg/kg/injection, schedule: Q01DX001 (ip), vehicle: water): 102 % of control
- T/C (dose: 600.0 mg/kg/injection, schedule: Q01DX009 (ip), vehicle: water): 122 % of control
- T/C (dose: 800.0 mg/kg/injection, schedule: Q01DX009 (ip), vehicle: water): 97 % of control

SMILES: Nc1nc(N)c2cc(CNc3ccc(C(=O)NC(C(=O)O)C(=O)O)cc3)ccc2n1
- T/C (dose: 0.06 mg/kg/injection, schedule: Q01DX001 (ip), vehicle: saline): 122 % of control
- T/C (dose: 0.06 mg/kg/injection, schedule: Q01DX015 (ip), vehicle: carboxymethylcellulose (CMC)): 123 % of control
- T/C (dose: 0.25 mg/kg/injection, schedule: Q01DX015 (ip), vehicle: carboxymethylcellulose (CMC)): 105 % of control
- T/C (dose: 5.0 mg/kg/injection, schedule: Q01DX001 (ip), vehicle: carboxymethylcellulose (CMC)): 157 % of control and 173 % of control
- T/C (dose: 11.25 mg/kg/injection, schedule: Q01DX001 (ip), vehicle: carboxymethylcellulose (CMC)): 91 % of control
- T/C (dose: 20.0 mg/kg/injection, schedule: Q01DX001 (ip), vehicle: carboxymethylcellulose (CMC)): 89 % of control

SMILES: CC1C(OC(=O)Cc2ccccc2)=CCC2C1(C)CCC1C2(C)CCC2(C)C3CC(C)(C)CCC3(C)CCC12C (centres undefined)
- T/C (dose: 100.0 mg/kg/injection, schedule: Q01DX001 (ip), vehicle: saline): 98 % of control
- T/C (dose: 200.0 mg/kg/injection, schedule: Q01DX001 (ip), vehicle: saline): 104 % of control
- T/C (dose: 400.0 mg/kg/injection, schedule: Q01DX001 (ip), vehicle: saline): 104 % of control

SMILES: OC(Cc1nccc2ccccc12)(C(F)(F)F)C(F)(F)F
- T/C [7]: 93 % of control
- T/C [8]: 100 % of control
- T/C [9]: 93 % of control
- T/C [10]: 101 % of control
- T/C [11]: 94 % of control
- T/C [12]: 100 % of control
